Measurements from patent publication US9115169B2, “Method of treating tumors” (Lytix Biopharma AS, priority 2000, dated 2015).
Converted amounts (≈) assume the structure as drawn. Where two headings read alike, the source gives them in different places. Where a SMILES comes first, the peptide text is derived from it. Where no end group is shown, it is not given here. [ ]: non-standard residue; d: D form. The star is where a group is joined. Trp(2-Pmc) = Cc1c(C)c(S(=O)(=O)c2[nH]c3ccccc3c2C[C@H](N)C(=O)O)c(C)c2c1OC(C)(C)CC2; Bip = N[C@@H](Cc1ccc(-c2ccccc2)cc1)C(=O)O; OBn = c1ccc(CO*)cc1

Tests used:
[1] = system: Staphylococcus aureus ATCC 25923
[2] = system: Escherichia coli ATCC 25922

Row | Compound | MIC S. aureus ([1]; ATCC 25923) [µg/mL] | MIC S. aureus ([1]; Table 8, second column) | MIC E. coli ([2]; ATCC 25922) [µg/mL] | MIC E. coli ([2]; Table 8, second column) | Minimum inhibitory concentration S. aureus ([1]; ATCC 25923) [µg/mL] | Minimum inhibitory concentration E. coli ([2]; ATCC 25922) [µg/mL] | MIC S. aureus ([1]; Table 8, first column) [µg/mL] | MIC E. coli ([2]; Table 8, first column) [µg/mL]
1 | C[C@H](N)C(=O)N[C@@H](C)C(=O)N[C@@H](Cc1ccc(-c2ccccc2)cc1)C(=O)N[C@@H](Cc1ccc(-c2ccccc2)cc1)C(=O)N[C@@H](CCCNC(=N)N)C(=O)N[C@@H](CCCNC(=N)N)C(N)=O [AABBRR-NH2] (H-AA[Bip][Bip]RR-NH2; N-terminus assumed) | 5 (≈ 5.45 µM) | 5.4 μM/ml | 20 to 35 | 21.8-38.1 μM/ml |  |  |  | 
2 | C[C@H](N)C(=O)N[C@@H](C)C(=O)N[C@@H](Cc1c[nH]c2ccccc12)C(=O)N[C@@H](Cc1ccc(-c2ccccc2)cc1)C(=O)N[C@@H](CCCNC(=N)N)C(=O)N[C@@H](CCCNC(=N)N)C(N)=O [AAWBRR-NH2] (H-AAW[Bip]RR-NH2; N-terminus assumed) | 20 to 35 | 22.7-39.7 μM/ml | 150 (≈ 170 µM) | 170.2 μM/ml |  |  |  | 
3 | Cc1c(C)c(S(=O)(=O)c2[nH]c3ccccc3c2C[C@H](NC(=O)[C@H](C)NC(=O)[C@H](C)N)C(=O)N[C@@H](CCCNC(=N)N)C(=O)N[C@@H](Cc2ccc(-c3ccccc3)cc2)C(=O)N[C@@H](CCCNC(=N)N)C(N)=O)c(C)c2c1OC(C)(C)CC2 [AAWRBR-NH2 Pmc+] (H-AA[Trp(2-Pmc)]R[Bip]R-NH2; N-terminus assumed) |  | 2.2 μM/ml |  | 13.1 μM/ml |  |  |  | 
4 | C[C@H](N)C(=O)N[C@@H](C)C(=O)N[C@@H](Cc1c[nH]c2ccccc12)C(=O)N[C@@H](CCCNC(=N)N)C(=O)N[C@@H](Cc1ccc(-c2ccccc2)cc1)C(=O)N[C@@H](CCCNC(=N)N)C(N)=O [AAWRBR-NH2] (H-AAWR[Bip]R-NH2; N-terminus assumed) | 35 (≈ 39.7 µM) | 39.7 μM/ml | 150 to 300 |  |  |  |  | 
5 | C[C@H](N)C(=O)N[C@@H](C)C(=O)N[C@@H](Cc1c[nH]c2ccccc12)C(=O)N[C@@H](Cc1c[nH]c2ccccc12)C(=O)N[C@@H](CCCNC(=N)N)C(=O)N[C@@H](CCCNC(=N)N)C(N)=O [AAWWRR-NH2] (H-AAWWRR-NH2; N-terminus assumed) | >200 | 237.0 μM/ml | >200 | 237.0 μM/ml |  |  |  | 
6 | Cc1c(C)c(S(=O)(=O)c2[nH]c3ccccc3c2C[C@H](NC(=O)[C@H](C)N)C(=O)N[C@@H](CCCNC(=N)N)C(=O)N[C@@H](Cc2ccc(-c3ccccc3)cc2)C(=O)N[C@@H](CCCNC(=N)N)C(=O)N[C@@H](C)C(N)=O)c(C)c2c1OC(C)(C)CC2 [AWRBRA-NH2 Pmc+] (H-A[Trp(2-Pmc)]R[Bip]RA-NH2; N-terminus assumed) |  | 2.2 μM/ml |  | 8.7 μM/ml |  |  |  | 
7 | C[C@H](N)C(=O)N[C@@H](Cc1c[nH]c2ccccc12)C(=O)N[C@@H](CCCNC(=N)N)C(=O)N[C@@H](Cc1ccc(-c2ccccc2)cc1)C(=O)N[C@@H](CCCNC(=N)N)C(=O)N[C@@H](C)C(N)=O [AWRBRA-NH2] (H-AWR[Bip]RA-NH2; N-terminus assumed) | 35 (≈ 39.7 µM) | 39.7 μM/ml | 35 (≈ 39.7 µM) | 39.7 μM/ml |  |  |  | 
8 | C[C@H](NC(=O)[C@H](C)NC(=O)[C@H](Cc1ccc(-c2ccccc2)cc1)NC(=O)[C@@H](N)Cc1ccc(-c2ccccc2)cc1)C(=O)N[C@@H](CCCNC(=N)N)C(=O)N[C@@H](CCCNC(=N)N)C(N)=O [BBAARR-NH2] (H-[Bip][Bip]AARR-NH2; N-terminus assumed) | 5 (≈ 5.45 µM) | 5.4 μM/ml | >150 | 163.4 μM/ml |  |  |  | 
9 | N=C(N)NCCC[C@H](NC(=O)[C@H](CCCNC(=N)N)NC(=O)[C@H](Cc1ccc(-c2ccccc2)cc1)NC(=O)[C@@H](N)Cc1ccc(-c2ccccc2)cc1)C(N)=O [BBRR-NH2] (H-[Bip][Bip]RR-NH2; N-terminus assumed) | 5 (≈ 6.44 µM) | 6.4 μM/ml | 50 (≈ 64.4 µM) | 64.4 μM/ml |  |  |  | 
10 | C[C@H](NC(=O)[C@H](C)NC(=O)[C@H](CCCNC(=N)N)NC(=O)[C@H](CCCNC(=N)N)NC(=O)[C@H](Cc1ccc(-c2ccccc2)cc1)NC(=O)[C@@H](N)Cc1ccc(-c2ccccc2)cc1)C(N)=O [BBRRAA-NH2] (H-[Bip][Bip]RRAA-NH2; N-terminus assumed) | 5 (≈ 5.45 µM) | 5.4 μM/ml | 75 (≈ 81.7 µM) | 81.7 μM/ml |  |  |  | 
11 | NCCCC[C@H](N)CN[C@@H](Cc1c[nH]c2ccccc12)C(=O)OCc1ccccc1 [Kψ(CH2NH)WOBzl] |  |  |  |  | 300 (≈ 734 µM) | >300 |  | 
12 | C[C@H](NC(=O)[C@H](C)NC(=O)[C@H](CCCNC(=N)N)NC(=O)[C@@H](N)CCCNC(=N)N)C(=O)N[C@@H](Cc1c[nH]c2ccccc12)C(=O)N[C@@H](Cc1ccc(-c2ccccc2)cc1)C(N)=O [RRAAWB-NH2] (H-RRAAW[Bip]-NH2; N-terminus assumed) | 10 (≈ 11.4 µM) | 11.3 μM/ml | 150 to 300 |  |  |  |  | 
13 | C[C@H](NC(=O)[C@H](C)NC(=O)[C@H](CCCNC(=N)N)NC(=O)[C@@H](N)CCCNC(=N)N)C(=O)N[C@@H](Cc1c[nH]c2ccccc12)C(=O)N[C@@H](Cc1c[nH]c2ccccc12)C(N)=O [RRAAWW-NH2] (H-RRAAWW-NH2; N-terminus assumed) | >200 | 237.0 μM/ml | >200 | 237.0 μM/ml |  |  |  | 
14 | C[C@H](NC(=O)[C@H](C)NC(=O)[C@H](Cc1ccc(-c2ccccc2)cc1)NC(=O)[C@@H](N)Cc1c[nH]c2ccccc12)C(=O)N[C@@H](CCCNC(=N)N)C(=O)N[C@@H](CCCNC(=N)N)C(N)=O [WBAARR-NH2] (H-W[Bip]AARR-NH2; N-terminus assumed) | 35 (≈ 39.7 µM) | 39.7 μM/ml | >300 | 340.5 μM/ml |  |  |  | 
15 | Cc1c(C)c(S(=O)(=O)c2[nH]c3ccccc3c2C[C@H](N)C(=O)N[C@@H](Cc2ccc(-c3ccccc3)cc2)C(=O)N[C@@H](CCCNC(=N)N)C(=O)N[C@@H](CCCNC(=N)N)C(N)=O)c(C)c2c1OC(C)(C)CC2 [WBRR-NH2 Pmc+] (H-[Trp(2-Pmc)][Bip]RR-NH2; N-terminus assumed) | 5 to 10 | 5.0-9.9 μM/ml | >100 | 99.5 μM/ml |  |  |  | 
16 | N=C(N)NCCC[C@H](NC(=O)[C@H](CCCNC(=N)N)NC(=O)[C@H](Cc1ccc(-c2ccccc2)cc1)NC(=O)[C@@H](N)Cc1c[nH]c2ccccc12)C(N)=O [WBRR-NH2] (H-W[Bip]RR-NH2; N-terminus assumed) | 20 (≈ 27.1 µM) | 27.1 μM/ml | >100 | 135.3 μM/ml |  |  |  | 
17 | C[C@H](NC(=O)[C@H](C)NC(=O)[C@H](CCCNC(=N)N)NC(=O)[C@H](CCCNC(=N)N)NC(=O)[C@H](Cc1ccc(-c2ccccc2)cc1)NC(=O)[C@@H](N)Cc1c[nH]c2ccccc12)C(N)=O [WBRRAA-NH2] (H-W[Bip]RRAA-NH2; N-terminus assumed) | 75 (≈ 85.1 µM) | 85.1 μM/ml | >300 | 340.5 μM/ml |  |  |  | 
18 | C[C@H](NC(=O)[C@H](C)NC(=O)[C@H](CCCNC(=N)N)NC(=O)[C@@H](N)Cc1c[nH]c2ccccc12)C(=O)N[C@@H](Cc1ccc(-c2ccccc2)cc1)C(=O)N[C@@H](CCCNC(=N)N)C(N)=O [WRAABR-NH2] (H-WRAA[Bip]R-NH2; N-terminus assumed) | 35 (≈ 39.7 µM) | 39.7 μM/ml | 150 (≈ 170 µM) | 170.2 μM/ml |  |  |  | 
19 | C[C@H](NC(=O)[C@H](C)NC(=O)[C@H](CCCNC(=N)N)NC(=O)[C@@H](N)Cc1c[nH]c2ccccc12)C(=O)N[C@@H](Cc1c[nH]c2ccccc12)C(=O)N[C@@H](CCCNC(=N)N)C(N)=O [WRAAWR-NH2] (H-WRAAWR-NH2; N-terminus assumed) | >200 | 237.0 μM/ml | >200 | 237.0 μM/ml |  |  |  | 
20 | Cc1c(C)c(S(=O)(=O)c2[nH]c3ccccc3c2C[C@H](N)C(=O)N[C@@H](CCCNC(=N)N)C(=O)N[C@@H](Cc2ccc(-c3ccccc3)cc2)C(=O)N[C@@H](CCCNC(=N)N)C(=O)N[C@@H](C)C(=O)N[C@@H](C)C(N)=O)c(C)c2c1OC(C)(C)CC2 [WRBRAA-NH2 Pmc+] (H-[Trp(2-Pmc)]R[Bip]RAA-NH2; N-terminus assumed) |  | 4.4 μM/ml |  | 13.1 μM/ml |  |  |  | 
21 | C[C@H](NC(=O)[C@H](C)NC(=O)[C@H](CCCNC(=N)N)NC(=O)[C@H](Cc1ccc(-c2ccccc2)cc1)NC(=O)[C@H](CCCNC(=N)N)NC(=O)[C@@H](N)Cc1c[nH]c2ccccc12)C(N)=O [WRBRAA-NH2] (H-WR[Bip]RAA-NH2; N-terminus assumed) | 35 (≈ 39.7 µM) | 39.7 μM/ml | 150 (≈ 170 µM) | 170.2 μM/ml |  |  |  | 
22 | N=C(N)NCCC[C@H](NC(=O)[C@@H](N)Cc1c[nH]c2ccccc12)C(=O)N[C@@H](Cc1c[nH]c2ccccc12)C(=O)OCc1ccccc1 [WRW-OBzl] (H-Trp-Arg-Trp-OBn) | 5 (≈ 7.85 µM) |  |  |  |  |  |  | 
23 | C[C@H](NC(=O)[C@H](C)NC(=O)[C@H](Cc1c[nH]c2ccccc12)NC(=O)[C@@H](N)Cc1c[nH]c2ccccc12)C(=O)N[C@@H](CCCNC(=N)N)C(=O)N[C@@H](CCCNC(=N)N)C(N)=O [WWAARR-NH2] (H-WWAARR-NH2; N-terminus assumed) | >200 | 237.0 μM/ml | >200 | 237.0 μM/ml |  |  |  | 
24 | NCCCC[C@@H](N)C(=O)N[C@@H](Cc1c[nH]c2ccccc12)C(=O)OCc1ccccc1 [kW-OBzl] (H-[dK]-Trp-OBn) | 100 (≈ 237 µM) |  | >300 |  | 100 (≈ 237 µM) | >300 |  | 
25 | AAWWRR-NH2 Pmc+: hexapeptide amide having the Pmc group (also: Pmc group, position not given here) |  | 2.3 μM/ml |  | 18.0 μM/ml |  |  | 2.5 | 20
